The values that follow come from patent publication US20140358576A1, “SYSTEM AND METHOD FOR SURVEILLANCE AND EVALUATION OF SAFETY RISKS ASSOCIATED WITH MEDICAL INTERVENTIONS” (Adverse Events, Inc., priority 2013, published 2014).

Structures can show the parent of a compound that is named as a salt. Where two headings read alike, the source gives them in different places.

For data set [1] the following is noted: for Condition Seriousness: Example 1 component score, up to 8.68 points; for Adverse Event Seriousness / Literature / Outcome / ROR / RxScore: human.
For data set [2] the following is noted: human.
Data set [3] is described as follows: RxScore calculation, Example 2 (FAERS components with event reporter Importance Weighting, no FDA warning/DEA schedule). Particulars: for RxScore: Example 2, maximum of 100 total points, Importance Weighting applied; for Condition Seriousness / Adverse Event Seriousness / Outcome: Example 2 component score; for Condition Seriousness: up to 12 points; for Adverse Event Seriousness: up to 27 points; for Outcome: up to 35 points, comorbidity adjusted; for ROR: Example 2 disproportionality measure component score, up to 20 points; for Report Priority: Example 2 report type component score, up to 6 points.

The conditions of data set [4]: patients, post-approval; cited from earlier work.
For data set [5] the following is noted: human. This is another data set of the same source.

As for `CCN(CC)CCNC(=O)c1cc(Cl)c(N)cc1OC` [metoclopramide], in data set [1], the “Condition Seriousness” value was 7.15, the “Adverse Event Seriousness” value worked out at 4.46, the Literature was 12.5 and the Outcome was 15.38. In data set [1], this molecule registered an ROR of 12.97 and a RxScore of 78.08.

For `CCCCC[C@H](O)CC[C@@H]1[C@H]2Cc3cccc(OCC(=O)O)c3C[C@H]2C[C@H]1O` [treprostinil], in data set [1], the “Condition Seriousness” value was 4.00 and the Literature turned out to be 0.0.

As for `CS(=O)(=O)OCCCCOS(C)(=O)=O` [busulfan], in data set [1], the “Condition Seriousness” value was determined as 2.52, the “Adverse Event Seriousness” value amounted to 14.67, the Literature was 12.5 and the Outcome amounted to 15.73. In data set [1], this molecule came in with an ROR of 7.15 and a RxScore of 86.04.

For `COc1ccc2c3c1O[C@H]1C(=O)CC[C@@]4(O)[C@@H](C2)N(C)CC[C@]314` [oxycodone], in data set [1], the “Adverse Event Seriousness” value was found to be 14.17, the Literature was 18.8, the Outcome came out at 14.81 and the ROR is listed as 5.51. This molecule also displayed a RxScore in data set [1] of 100.00. The “disproportionality (ROR) score” value in data set [2] turned out to be 268.

On to `C=CC[C@@H]1/C=C(\C)C[C@H](C)C[C@H](OC)[C@H]2O[C@@](O)(C(=O)C(=O)N3CCCC[C@H]3C(=O)O[C@H](/C(C)=C/[C@@H]3CC[C@@H](O)[C@H](OC)C3)[C@H](C)[C@@H](O)CC1=O)[C@H](C)C[C@@H]2OC` [tacrolimus], for which, in data set [1], the “Condition Seriousness” value came to 3.13, the “Adverse Event Seriousness” value is 14.77, the Literature turned out to be 9.3 and the Outcome amounted to 15.75. In data set [1], the ROR came to 4.09 and the RxScore worked out at 78.26.

As for `CN(CCOc1ccc(CC2SC(=O)NC2=O)cc1)c1ccccn1` (stereo not drawn) [rosiglitazone], in data set [1], the “Condition Seriousness” value was found to be 3.77, the Literature is 12.5, the Outcome is on record as 12.18 and the ROR is listed as 5.53. In data set [1], this molecule showed a RxScore of 79.48.

Turning to `CN1CC[C@]23c4c5ccc(O)c4O[C@H]2C(=O)CC[C@@]3(O)[C@H]1C5` [oxymorphone], in data set [1], the “Adverse Event Seriousness” value came to 6.21, the Literature is reported as 18.8, the Outcome is listed as 10.33 and the ROR was 3.98. In data set [1], the RxScore was 77.03.

For `O=P(O)(O)C(O)(Cc1cccnc1)P(=O)(O)O` [risedronate sodium (Actonel), risedronate sodium], in data set [3], the RxScore is given as 46.13, the “Condition Seriousness” value is recorded as 2.40, the “Adverse Event Seriousness” value is on record as 8.19 and the Outcome is on record as 13.15. Moreover, in data set [3], the ROR is recorded as 4.82 and the “Report Priority” value is given as 3.46.

`CS(=O)(=O)c1ccc(C2=C(c3ccccc3)C(=O)OC2)cc1` [Vioxx, rofecoxib]: the “side effect that became evident after FDA approval” value (“side effect that became evident” for short) in data set [4] was “increased heart attack and stroke rates”.

Consider `COCc1c(C(C)C)nc(C(C)C)c(/C=C/[C@@H](O)C[C@@H](O)CC(=O)O)c1-c1ccc(F)cc1` [Baycol], for which the “side effect that became evident” value in data set [4] is given as “a fatal muscle-wasting syndrome”.

In data set [1], `CCC(=O)C(CC(C)N(C)C)(c1ccccc1)c1ccccc1` (stereo not drawn) [methadone] showed a Literature of 18.8 and an ROR of 4.85.

As to `O=P(O)(O)C(O)(Cc1cccnc1)P(=O)(O)O` [risedronate sodium (Atelvia), risedronate sodium], in data set [3], the RxScore is 39.63, the “Condition Seriousness” value is reported as 2.40, the “Adverse Event Seriousness” value is recorded as 4.60 and the Outcome is given as 12.68. For the same molecule, in data set [3], the ROR was 5.34 and the “Report Priority” value was 1.63.

As to `CCCC(CCC)C(=O)[O-].[Na+]` [valproate sodium], in data set [5], the “Adverse Event Seriousness” value turned out to be 10.26, the Outcome came to 13.09, the ROR was 5.64 and the RxScore was determined as 48.83.

Regarding `CCCC(C)(COC(N)=O)COC(=O)NC(C)C` (stereo not drawn) [carisoprodol], in data set [5], the “Adverse Event Seriousness” value stood at 17.03, the Outcome was determined as 26.05, the ROR is on record as 9.07 and the RxScore was 83.70.

In the case of `CC(C)CC(N(C)C)C1(c2ccc(Cl)cc2)CCC1` (stereo not drawn) [Meridia, Sibutramine], the “side effect that became evident” value in data set [4] is reported as “severe cardiac complications”.

Consider `CN1CCN(C2=Nc3cc(Cl)ccc3Nc3ccccc32)CC1` [clozapine], for which, in data set [5], the “Adverse Event Seriousness” value amounted to 16.28 and the Outcome is 23.55.

For the molecule `CCCCC[C@H](O)/C=C/[C@H]1[C@H](O)CC(=O)[C@@H]1C/C=C\CCCC(=O)O` [dinoprostone], in data set [5], the “Adverse Event Seriousness” value was 15.66, the Outcome came out at 19.09, the ROR came to 10.62 and the RxScore came out at 74.95.

As for `O=P(O)(O)C(O)(Cn1ccnc1)P(=O)(O)O` [zoledronic acid (Reclast), zoledronic acid], in data set [5], the “Adverse Event Seriousness” value turned out to be 12.33, the Outcome is recorded as 16.89, the ROR was 3.53 and the RxScore is reported as 53.23.

Turning to `NC(=O)OCC(COC(N)=O)c1ccccc1` [felbamate], in data set [5], the “Adverse Event Seriousness” value was 7.72, the Outcome is given as 14.26, the ROR was found to be 2.81 and the RxScore is given as 43.92.

With `Cc1nnc2n1-c1ccc(Cl)cc1C(c1ccccc1)=NC2` [alprazolam], in data set [5], the “Adverse Event Seriousness” value came out at 13.30, the Outcome was 21.02, the ROR amounted to 6.40 and the RxScore came out at 72.84.

For the molecule `CNC[C@H](O)c1ccc(O)c(O)c1` [epinephrine injection, epinephrine], in data set [5], the “Adverse Event Seriousness” value worked out at 4.69, the Outcome was found to be 21.03, the ROR is reported as 16.91 and the RxScore stood at 73.02.

In data set [5], `COC(=O)C(c1ccccc1)C1CCCCN1` (stereo not drawn) [methylphenidate] yielded an ROR of 13.69.

`Cc1ccsc1C(=CCCN1CCC[C@@H](C(=O)O)C1)c1sccc1C` [tiagabine hydrochloride]: in data set [5], the “Adverse Event Seriousness” value came out at 10.82, the Outcome was found to be 12.04, the ROR is 6.41 and the RxScore worked out at 48.70.

As to `O=C1CN=C(c2ccccc2Cl)c2cc([N+](=O)[O-])ccc2N1` [clonazepam], in data set [5], the “Adverse Event Seriousness” value is 11.38, the Outcome is 15.34, the ROR is 3.43 and the RxScore stood at 51.36.

For the molecule `COc1ccccc1Oc1c(NS(=O)(=O)c2ccc(C(C)(C)C)cc2)nc(-c2ncccn2)nc1OCCO` [bosentan], in data set [1], the “Condition Seriousness” value was 2.07, the ROR worked out at 3.81 and the RxScore is 81.44.

Take `C#Cc1cccc(Nc2ncnc3cc(OCCOC)c(OCCOC)cc23)c1` [erlotinib hydrochloride]: the “Adverse Event Seriousness” value in data set [5] is on record as 18.95.

Take `Nc1nc(F)nc2c1ncn2[C@@H]1O[C@H](CO)[C@@H](O)[C@@H]1O` [fludarabine]: in data set [1], the “Adverse Event Seriousness” value is 12.69, the Literature is recorded as 12.5, the Outcome is given as 15.34 and the ROR came to 4.60. Further, the RxScore in data set [1] is 78.34.

In data set [5], `Nc1nc(Cl)nc2c1ncn2[C@@H]1O[C@H](CO)[C@@H](O)[C@@H]1F` [clofarabine] showed an Outcome of 23.27.

Regarding `CCC1(C)CC(=O)NC1=O` (stereo not drawn) [ethosuximide], in data set [5], the “Adverse Event Seriousness” value is 7.71, the Outcome amounted to 10.64, the ROR came to 2.92 and the RxScore turned out to be 41.01.

Turning to `NCCCC(O)(P(=O)(O)O)P(=O)(O)O` [alendronate], in data set [1], the “Condition Seriousness” value was found to be 7.02 and the Literature was 5.0.

Take `NS(=O)(=O)Cc1noc2ccccc12` [zonisamide]: in data set [5], the “Adverse Event Seriousness” value amounted to 11.03, the Outcome is given as 13.71, the ROR was 4.73 and the RxScore came out at 49.83.

As for `CN1CCC(=C2c3ccccc3CCn3c(C=O)cnc32)CC1` [alcaftadine], the ROR in data set [5] came to 12.53.

`O=C1NC(c2ccccc2)(c2ccccc2)C(=O)N1COP(=O)(O)O` [fosphenytoin sodium]: in data set [5], the “Adverse Event Seriousness” value is given as 8.16, the Outcome stood at 15.85, the ROR worked out at 5.09 and the RxScore came to 46.69.
